Assays:
VCAM-1 = VCAM-1 western blot in TNFα treated HUVECs; assay type: cell-based, human
Method: FIG. 25 is a graph showing VCAM-1 protein expression level as a cellular correlate of inflammation. INV-75 inhibits TNFα induced VCAM-1 expression in HUVECs. HUVECs were pretreated with vehicle, INV75, or WY-14643 for 2 hours, and then treated with TNFα for 4 hours. VCAM-1 expression was analyzed by Western blot. A representative and summary of three independent experiments are presented. *, p<0.05 vs control; #, p<0.05 vs TNFα.
In subsequent experiments we also tested the effects of INV-75 on VCAM-1 expression by western blot.
We have also examined the effects of INV-75 in cell culture to understand its effects on regulation of the adhesion molecule VCAM-1. We had previously shown that iNV-75 reduced NF-kB activation and expression of VCAM-1 and ICAM-1 in HUVEC cells (see FIG. 3 and FIG. 4). […] HUVECs were pretreated with vehicle, INV-75, or WY-14643 for 2 hours, and then treated with TNFα for 4 hours. VCAM-1 expression was analyzed at the end of this duration. A representative and summary of three independent experiments are presented. *, p<0.05 vs control; #, p<0.05 vs TNFα (FIG. 25).

PCSK9 = PCSK9 expression in HepG2 cells; assay type: cell-based, human
Text: Next we investigated the effect of INV-75 in regulating LDL receptor expression in the same cells using a similar protocol to assess dose and temporal dependence. FIGS. 5E and 5F depict the time course of LDL receptor expression and dose dependence in response to INV-75. […] INV-75 had no effects on SREBP-1 regulation (data not shown). Simultaneously multiple genes involved in cholesterol synthesis and regulation, apolipoprotein gene expression and expression of PCSK9 (Proprotein convertase subtilisin/kexin type 9) was tested. The latter gene is known to regulate LDL receptor expression by binding to the epidermal growth factor-like repeat A (EGF-A) domain of the low-density lipoprotein receptor (LDLR), inducing LDLR degradation. Inhibition of PSCK9 function is currently being explored as a means of lowering cholesterol levels.

human full length PPARα = molecular target: T1, human full length PPARα (Homo sapiens, UniProt Q07869); assay: PPARα promoter-reporter luciferase assay in HepG2 cells; assay type: cell-based
T1 construct: HepG2 cells transfected by full length human PPARα linked to luciferase reporter; expressed in transfected cells; host or cells: HepG2
T1 sequence (Q07869 1-468): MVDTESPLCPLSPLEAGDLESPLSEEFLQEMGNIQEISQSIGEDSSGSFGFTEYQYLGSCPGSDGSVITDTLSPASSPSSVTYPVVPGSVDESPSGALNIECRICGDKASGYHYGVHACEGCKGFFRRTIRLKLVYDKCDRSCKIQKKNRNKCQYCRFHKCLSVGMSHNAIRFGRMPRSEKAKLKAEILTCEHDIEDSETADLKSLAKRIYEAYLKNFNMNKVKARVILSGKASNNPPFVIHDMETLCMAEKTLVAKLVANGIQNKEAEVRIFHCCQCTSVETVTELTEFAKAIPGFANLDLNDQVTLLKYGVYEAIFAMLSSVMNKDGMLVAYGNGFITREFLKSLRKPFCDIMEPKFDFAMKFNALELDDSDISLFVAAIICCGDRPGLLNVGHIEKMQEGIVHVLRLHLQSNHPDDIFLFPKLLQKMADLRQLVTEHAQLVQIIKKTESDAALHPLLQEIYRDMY
Text: HepG2 cells were transfected with the full length PPARα promoter reporter construct and stimulated by INV-75 ([…]). Results in C are expressed as % increase compared to WY 14643.
(§1) We used a reporter gene assay in HepG2 cells to screen for agonists of the peroxisome proliferator-activated receptors. Peroxisome proliferator-activated receptors (PPARs) and other members of the nuclear hormone receptor family are important drug targets for the treatment of metabolic diseases. PPARs play crucial roles in lipid and glucose metabolism, respectively. Therefore, screening methods that help to rapidly identify activators of these receptors should be of considerable value. INV-75 activated a classic PPARα gene, Acetyl-CoA Oxidase (ACO) in a dose dependent and time dependent fashion (FIG. 6A). The time course experiment was performed in presence of INV-75 up to 15 hours. […] We next tested the specificity of INV-75 for PPARα by performing experiments in HepG2 cells transfected with yeast GAL4-PPARα-LBD plasmid+UAS-Luciferase; GAL4-PPARδ-LBD plasmid+UAS-Luciferase and […]. The PPARα, PPARδ and PPARγ binding assays were performed using multiple concentrations of INV-75 (1 μM, 10 μM, 100 μM and 1000 μM). The level of luciferase activity corresponded to the degree of PPAR activation. The results were compared with classic PPAR agonists such as WY-14643 (PPARα agonist), Bezafibrate (PPARδ agonist) and Rosiglitazone ([…]).

PPARγ = molecular target: T2, PPARγ (Homo sapiens, UniProt P37231); assay: GAL4-PPARγ-LBD luciferase assay in HepG2 cells; assay type: cell-based; details: 1 μM to 1000 μM
T2 construct: GAL4-PPARδ-LBD plasmid+UAS-Luciferase and GAL4-PPARα-LBD plasmid+UAS-Luciferase; expressed in transfected cells; host or cells: HepG2
Text: as §1

[1] = system: Watanabe Heritable Hyperlipidemic Rabbits (WHHL); assay: Western blot of VCAM-1 and ICAM-1 in WHHL rabbit aorta; assay type: in vivo
Method: Samples were homogenized and solubilized in radioimmunoprecipitation assay buffer (50 mM Tris-HCl, pH 7.4, 150 mM NaCl, 1 mM EDTA, 1 mM NaF, 1 mM Na3VO4) and 1 mM phenylmethylsulfonyl fluoride, with 0.25% sodiumdeoxycholate and 1.0% Nonidet P-40) and centrifuged at 10,000 g and 4° C. for 30 min. The supernatant was collected and subjected to Western blot analysis. In brief, 40 μg of protein was separated by SDS-polyacrylamide gel electrophoresis and subsequently transferred to nitrocellulose membrane. The membrane was then incubated with: monoclonal anti-β-actin (Sigma, St. Louis, Mo.), monoclonal anti-VCAM (R&D Systems, Minneapolis, Minn.), monoclonal anti-ICAM (R&D Systems, Minneapolis, Minn.), monoclonal anti-phospho-eNOS(pS 1177) (BD Biosciences, Billerica, Mass.), rabbit anti-eNOS (Santa Cruz Biotechnology, Santa Cruz, Calif.), rabbit anti-phospho-Akt (Thr308) (Cell Signaling Technology, Danvers, Mass.), goat anti-Akt (Santa Cruz Biotechnology, Santa Cruz, Calif.), and rabbit anti-p65 (Cell Signaling Technology, Danvers, Mass.). Finally, the membranes were incubated with a horseradish peroxidase-linked secondary antibody and visualized with an enhanced chemiluminescence kit (Amersham Biosciences Inc., Piscataway, N.J.). Band density was quantified by densitometric analysis using ImageJ.

T2 sequence (P37231 238-503 limits assumed, species assumed): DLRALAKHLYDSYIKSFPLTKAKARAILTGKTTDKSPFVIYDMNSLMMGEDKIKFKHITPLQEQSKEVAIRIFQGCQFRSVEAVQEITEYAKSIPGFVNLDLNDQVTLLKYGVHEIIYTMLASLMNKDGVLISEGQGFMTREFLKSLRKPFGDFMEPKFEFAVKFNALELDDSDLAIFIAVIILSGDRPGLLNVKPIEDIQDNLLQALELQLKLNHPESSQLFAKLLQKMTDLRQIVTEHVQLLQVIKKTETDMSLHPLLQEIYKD

luciferase activation (human full length PPARα; HepG2 transfected with PPARα promoter-reporter construct): increased
persistence of effects on PPARα activation (human full length PPARα; time course): up to 15 hours
time of onset of PPARα activation (human full length PPARα; time course): < 1 h
effects on PPARγ (PPARγ): without effects
SMILES: CC(=O)Oc1cc2c(cc1[N+](=O)[O-])OCO2 [INV-75, 3,4-methylenedioxy-6-nitrophenyl acetate]
TNFα induced VCAM-1 expression (VCAM-1; HUVECs pretreated 2 hours, then TNFα 4 hours): inhibits
VCAM-1 protein levels by western blot (VCAM-1; pre-treatment versus control (vehicle)): reduction
PCSK9 expression (PCSK9): no effects
protein expression of ICAM-1 [1]: markedly reduced
protein expression of VCAM-1 [1]: markedly reduced
